Results published in ChEMBL document CHEMBL3045592, “Studies of O,O-dimethyl α-(2,4-dichlorophenoxyacetoxy)ethylphosphonate (HW02) as a new herbicide. 1. Synthesis and herbicidal activity of HW02 and analogues as novel inhibitors of pyruvate dehydrogenase complex” (J Agric Food Chem, 2011).

Columns and labels:
Assay type in all cases: functional
Echinochloa crus-galli [1] = test: Post-emergence herbicidal activity against Echinochloa crus-galli (barnyard grass) assessed as growth inhibition at 1500 ai g/ha after 20 days by green house test
[2] = tested on: Brassica rapa subsp. oleifera; test: Pre-emergence herbicidal activity against Brassica rapa subsp. oleifera Si Yue Man assessed as growth inhibition at 1500 ai g/ha after 20 days by green house test
Amaranthus retroflexus [3] = test: Post-emergence herbicidal activity against Amaranthus retroflexus assessed as growth inhibition at 1500 ai g/ha after 20 days by green house test
Medicago sativa [4] = test: Pre-emergence herbicidal activity against Medicago sativa (alfalfa) assessed as growth inhibition at 1500 ai g/ha after 20 days by green house test
Medicago sativa [5] = test: Post-emergence herbicidal activity against Medicago sativa (alfalfa) assessed as growth inhibition at 1500 ai g/ha after 20 days by green house test
Digitaria sanguinalis [6] = test: Post-emergence herbicidal activity against Digitaria sanguinalis (hairy crabgrass) assessed as growth inhibition at 1500 ai g/ha after 20 days by green house test
Digitaria sanguinalis [7] = test: Pre-emergence herbicidal activity against Digitaria sanguinalis (hairy crabgrass) assessed as growth inhibition at 1500 ai g/ha after 20 days by green house test
Amaranthus retroflexus [8] = test: Pre-emergence herbicidal activity against Amaranthus retroflexus assessed as growth inhibition at 1500 ai g/ha after 20 days by green house test
Echinochloa crus-galli [9] = test: Pre-emergence herbicidal activity against Echinochloa crus-galli (barnyard grass) assessed as growth inhibition at 1500 ai g/ha after 20 days by green house test
[10] = tested on: Brassica rapa subsp. oleifera; test: Post-emergence herbicidal activity against Brassica rapa subsp. oleifera Si Yue Man assessed as growth inhibition at 1500 ai g/ha after 20 days by green house test

SMILES | growth inhibition (GI) (Echinochloa crus-galli [1]) | growth inhibition (GI) [2] | growth inhibition (GI) (Amaranthus retroflexus [3]) | growth inhibition (GI) (Medicago sativa [4]) | growth inhibition (GI) (Medicago sativa [5]) | growth inhibition (GI) (Digitaria sanguinalis [6]) | growth inhibition (GI) (Digitaria sanguinalis [7]) | growth inhibition (GI) (Amaranthus retroflexus [8]) | growth inhibition (GI) (Echinochloa crus-galli [9]) | growth inhibition (GI) [10]
COP(=O)(OC)C(C)OC(=O)COc1ccc(F)c(Cl)c1 (stereo not given) | <=50% | <=50% | 75% | 75% | 75% | <=50% | 50% | <=50% | 50% | 75%
COP(=O)(OC)C(OC(=O)COc1cccc(Cl)c1Cl)c1cccc([N+](=O)[O-])c1 (stereo not given) | <=50% | <=50% | <=50% | <=50% | <=50% | <=50% | <=50% | <=50% | <=50% | <=50%
COP(=O)(COC(=O)COc1ccc(C(F)(F)F)cc1)OC | <=50% | <=50% | 75% | <=50% | <=50% | <=50% | <=50% | <=50% | <=50% | <=50%
COP(=O)(OC)C(C)OC(=O)COc1cc(C)ccc1Cl (stereo not given) | <=50% | <=50% | <=50% | <=50% | <=50% | 50% | <=50% | <=50% | <=50% | <=50%
COP(=O)(OC)C(OC(=O)COc1cccc(F)c1)c1cccc([N+](=O)[O-])c1 (stereo not given) | <=50% | <=50% | <=50% | <=50% | <=50% | <=50% | <=50% | <=50% | <=50% | <=50%
COP(=O)(OC)C(OC(=O)COc1ccc(F)cc1)c1cccc([N+](=O)[O-])c1 (stereo not given) | 50% | <=50% | 75% | 75% | 50% | 50% | 90% | 75% | 50% | 50%
COP(=O)(OC)C(OC(=O)COc1ccc(F)cc1F)c1ccccc1 (stereo not given) | <=50% | <=50% | 90% | 50% | <=50% | <=50% | <=50% | 50% | 75% | <=50%
COP(=O)(OC)C(OC(=O)COc1ccc(F)c(Cl)c1)c1ccccc1 (stereo not given) | 50% | 90% | 75% | 75% | 50% | <=50% | 90% | 90% | 75% | 75%
COP(=O)(OC)C(OC(=O)COc1c(Cl)cccc1Cl)c1cccc([N+](=O)[O-])c1 (stereo not given) | <=50% | <=50% | <=50% | <=50% | <=50% | <=50% | <=50% | <=50% | <=50% | <=50%
COP(=O)(OC)C(C)OC(=O)COc1ccc(F)cc1F (stereo not given) | <=50% | <=50% | 75% | 50% | 50% | 50% | 75% | <=50% | <=50% | 75%
COP(=O)(OC)C(OC(=O)COc1cc(C)ccc1Cl)c1cccc([N+](=O)[O-])c1 (stereo not given) | <=50% | <=50% | <=50% | <=50% | <=50% | <=50% | <=50% | <=50% | <=50% | <=50%
COP(=O)(OC)C(C)OC(=O)COc1ccc(F)cc1Cl (stereo not given) | 75% | 90% | 90% | 90% | 90% | 75% | 90% | 90% | 90% | 90%
COP(=O)(OC)C(C)OC(=O)COc1cccc(F)c1 (stereo not given) | <=50% | <=50% | <=50% | <=50% | <=50% | <=50% | <=50% | <=50% | <=50% | <=50%
COP(=O)(OC)C(OC(=O)COc1ccc(Cl)cc1)c1cccc([N+](=O)[O-])c1 (stereo not given) | 75% | 90% | 75% | 90% | 75% | 50% | 90% | 90% | 90% | 75%
COP(=O)(OC)C(C)OC(=O)COc1ccc(Br)cc1 (stereo not given) | <=50% | <=50% | 50% | <=50% | 50% | <=50% | <=50% | <=50% | <=50% | 75%
COP(=O)(OC)C(OC(=O)COc1ccc(C(F)(F)F)cc1)c1cccc([N+](=O)[O-])c1 (stereo not given) | <=50% | <=50% | 50% | <=50% | <=50% | <=50% | <=50% | <=50% | <=50% | <=50%
COP(=O)(OC)C(OC(=O)COc1ccccc1F)c1cccc([N+](=O)[O-])c1 (stereo not given) | 90% | <=50% | <=50% | <=50% | <=50% | <=50% | <=50% | <=50% | <=50% | <=50%
COP(=O)(OC)C(OC(=O)COc1ccc(Cl)cc1)c1ccccc1O (stereo not given) | <=50% | <=50% | 75% | 90% | 75% | <=50% | 50% | <=50% | <=50% | 75%
COP(=O)(OC)C(OC(=O)COc1ccccc1)c1ccccc1 (stereo not given) | <=50% | <=50% | <=50% | <=50% | <=50% | <=50% | <=50% | <=50% | <=50% | <=50%
COP(=O)(OC)C(OC(=O)COc1ccc(C(F)(F)F)cc1[N+](=O)[O-])c1cccc([N+](=O)[O-])c1 (stereo not given) | <=50% | <=50% | <=50% | <=50% | <=50% | <=50% | <=50% | <=50% | <=50% | <=50%
COP(=O)(OC)C(C)OC(=O)COc1ccc(Cl)cc1 (stereo not given) | <=50% | 90% | 90% | 90% | 50% | <=50% | 90% | 90% | 90% | 75%
